Test results from patent publication US6545043B1 (priority 1997, dated 2003).
In brackets after ≈: the same amount, converted by molar mass. Several values for one entry are separate records, joined by “and”; a condition that tells them apart may be missing. Identical values can stand only once. Entries after “also recorded” stand apart in the source; their conditions may differ. Like-named read-outs stand apart in the source and are kept apart here.

Key:
[1] = test system: adult house fly (Musca domestica); conditions: in vivo
[2] = test system: lesser grain borer (Rhizopertha dominica); conditions: in vivo
[3] = test system: adult house fly (Musca domestica); assay: whole plant or invertebrate; conditions: topical, 24 h, read-out: Percentage mortality at 24 h
[4] = test system: brine shrimp (Artemia franciscana); assay: whole plant or invertebrate
[5] = test system: yellow fever mosquito (Aedes aegypti) larvae; assay: whole plant or invertebrate; conditions: 24 h, read-out: % mortality at 1 ppm
[6] = test system: brine shrimp (Artemia franciscana); conditions: in vivo
[7] = in vivo; cited from earlier work
[8] = test system: soybean cyst nematode (SCN) (Heterodera glycines) eggs; conditions: in vivo
[9] = test system: root-knot nematode (RKN) (Meloidogyne incognita) eggs; conditions: in vivo
[10] = test system: adult house fly (Musca domestica); conditions: in vivo; remark: listed apart in the source
[11] = test system: root-knot nematode (RKN) (Meloidogyne incognita) eggs; conditions: in vivo; remark: listed apart in the source
weed seeds in soil = conditions: in vivo
[12] = 24 h, read-out: % Mortality at 1 ppm

## N#CC1(O)C=CCCC1 (stereo not shown) [2-cyclohexen-1-one cyanohydrin]
[1]
  LC50: >20 µg/mL
[2]
  LC50: >20 µg/mL

## CC=C(C)C(O)C#N (stereo not shown) [2-methyl-2-butenal cyanohydrin]
[1]
  LC50: >20 µg/mL
[2]
  LC50: >20 µg/mL

## CCC(C)C(O)C#N (stereo not shown) [2-methylbutyraldehyde cyanohydrin]
[1]
  LC50: >20 µg/mL
[2]
  LC50: >20 µg/mL

## CCCC(C)C(O)C#N (stereo not shown) [2-methylvaleraldehyde cyanohydrin]
[1]
  LC50: >20 µg/mL
[2]
  LC50: >20 µg/mL

## N#CC(O)c1ccccc1[N+](=O)[O-] (stereo not shown) [2-nitromandelonitrile cyanohydrin]
[1]
  LC50: >20 µg/mL
[2]
  LC50: >20 µg/mL

## CC(C)C(C)(O)C#N (stereo not shown) [3-methylbutanone cyanohydrin]
[1]
  LC50: >20 µg/mL
[2]
  LC50: >20 µg/mL

## C=CCC#N [AC, allyl cyanide]
[1]
  LC50: 3.66 µg/mL (≈ 54.6 µM)
[3]
  mortality at 97 µg/fly: 15%
[4]; [12]
  mortality at 1 ppm: 7%
[2]
  LC50: 2.8 µg/mL (≈ 41.7 µM)
[5]
  mortality at 1 ppm: 3%
[6]
  effectiveness as aquatic pesticide: very weak

## C=CCN=C=S [AITC, allyl isothiocyanate]
[1]
  LC50: 0.13 µg/mL (≈ 1.31 µM)
[3]
  mortality at 99 µg/fly: 45%
[4]; [12]
  mortality at 1 ppm: 97%
[2]
  LC50: 1.57 µg/mL (≈ 15.8 µM)
[5]
  mortality at 1 ppm: 83%

## C=CCSC#N [ATC, allyl thiocyanate]
[3]
  mortality at 101 µg/fly: 35%
[4]; [12]
  mortality at 1 ppm: 47%
[5]
  mortality at 1 ppm: 57%
[6]
  effectiveness as aquatic pesticide: very weak

## CNC(=O)O/N=C/C(C)(C)SC [Aldicarb]
[7]
  mammalian LD50: 1 mg/kg

## C=CC(O)CC#N (stereo not shown) [CHB, 1-cyano-2-hydroxy-3-butene]
[1]
  LC50: 6.2 µg/mL (≈ 63.8 µM)
[3]
  mortality at 10.7 µg/fly: 0%
  mortality at 107 µg/fly: 55%
[4]; [12]
  mortality at 1 ppm: 13%
[2]
  times less effective than dichlorvos: about 68 times
[8]
  […] HATCH: −70% and −73%
[5]
  mortality at 1 ppm: 17%
[6]
  effectiveness as aquatic pesticide: very weak

## C=CC(C#N)OC(=O)/C=C/c1ccccc1 (stereo not shown) [CHP cinnamate]
[3]
  mortality at 1 µg/fly: 0%
  mortality at 10 µg/fly: ~50%
  mortality at 100 µg/fly: 87%
[4]
  mortality at 1 ppm: 95%
  mortality at 10 ppm: 100%
  mortality at 100 ppm: 100%
[6]
  effectiveness as aquatic pesticide: moderately toxic

## C=CC(C#N)OC(=O)CCCCCCCCC (stereo not shown) [CHP decanoate]
[3]
  mortality at 1 µg/fly: 0%
  mortality at 10 µg/fly: ~50%
  mortality at 100 µg/fly: 100%
[4]
  mortality at 1 ppm: 15%
  mortality at 10 ppm: 95%
  mortality at 100 ppm: 100%

## C=CC(O)C#N (stereo not shown) [CHP, 3-cyano-3-hydroxy-1-propene]
[9]
  percent hatch, highest in the 22-day observation period: ≤ 34.4%
[1]
  LC50: 0.15 µg/mL (≈ 1.81 µM)
[3]
  mortality at 9.8 µg/fly: 5%
  mortality at 98 µg/fly: 100%
[2]
  LC50: 0.37 µg/mL (≈ 4.45 µM)
[10]
  effectiveness as topical pesticide: relatively weak
[11]
  percent hatch, highest in the 22-day period: ≤ 19%

## C=CC(C#N)OC(C)=O (stereo not shown) [CHP-Ace, CHP acetate]
Soil bacteria
  Severity (bacteria and fungal colonies formed): completely inhibited growth; also recorded: No bacteria or fungal colonies
[9]
  Percent hatch: 0.0% and 5.4% and 5.6% and 0.8% and 1.5% and 4.9% and 5.2% and 5.3%
  percent hatch, highest in the 22-day observation period: ≤ 5.6%
[1]
  LC50: 0.26 µg/mL
  times less effective than dichlorvos: about 20 times
[3]
  mortality at 10 µg/fly: 0%
  mortality at […]: 100%
[2]
  LC50: 0.37 µg/mL
Weed seeds in soil
  effect on post-emergent weeds (observation): kill post-emergent weeds
[11]
  percent hatch, highest in the 22-day period: ≤ 42.6%

## C=CC(C#N)OC(=O)C(C)(C)C (stereo not shown) [CHP-Piv, CHP pivalate]
[1]
  LC50: 1.37 µg/mL (≈ 8.19 µM)
[3]
  mortality at 9.9 µg/fly: 0%
  mortality at 99 µg/fly: 80%
[2]
  LC50: 2.4 µg/mL (≈ 14.4 µM)
